From US12162893B2 (Erasca, Inc., priority 2020, dated 2024)

These compounds were tested against T1, mutant G12C K-RAS (Homo sapiens, UniProt P01116, G12C) (assay: covalent adduct formation (CAF) with mutant G12C K-RAS). Settings: Table 6; 10 μM, 1 h.
T1 construct: made in house; host or cells: E. coli BL21
Format: binding
Experimental: Embodiments disclosed herein are further illustrated by the following examples in Tables 1-4 and the Examples hereinbelow. The Tables indicate the compound number, structure, the observed mass spectral molecular weight peak, and covalent adduct formation (CAF) with a mutant G12C K-RAS after 60 minutes at a concentration of 10 micromolar.

Structure (SMILES)	% CAF @ 10 μM,1 h
C=CC(=O)N1C[C@H](C)N(c2nc(=O)n3c4c(c(-c5ccc(F)cc5F)c(Cl)cc24)OC[C@H]3CN2CCC2)C[C@H]1C [Example 233, (3R)-7-((2S,5R)-4-acryloyl-2,5-dimethylpiperazin-1-yl)-3-(azetidin-1-ylmethyl)-9-chloro-10-(2,4-difluorophenyl)-2H-[1,4]oxazino[2,3,4-ij]quinazolin-5(3H)-one]	76%
C=CC(=O)N1C[C@H](C)N(c2nc(=O)n3c4c(c(-c5ccc(F)cc5F)c(Cl)cc24)OC[C@H]3Cn2cccn2)C[C@H]1C [Example 234, (3R)-3-((1H-pyrazol-1-yl)methyl)-7-((2S,5R)-4-acryloyl-2,5-dimethylpiperazin-1-yl)-9-chloro-10-(2,4-difluorophenyl)-2H-[1,4]oxazino[2,3,4-ij]quinazolin-5(3H)-one]	71.3%
C=CC(=O)N1C[C@H](C)N(c2nc(=O)n3c4c(c(-c5ccc(F)cc5F)c(Cl)cc24)OC[C@H]3CN(C)CC(F)(F)F)C[C@H]1C [Example 235, (3R)-7-((2S,5R)-4-acryloyl-2,5-dimethylpiperazin-1-yl)-9-chloro-10-(2,4-difluorophenyl)-3-((methyl(2,2,2-trifluoroethyl)amino)methyl)-2H-[1,4]oxazino[2,3,4-ij]quinazolin-5(3H)-one]	44.5%
C=CC(=O)N1C[C@H](C)N(c2nc(=O)n3c4c(c(-c5ccc(F)cc5F)c(Cl)cc24)OC[C@@H]3Cn2cccn2)C[C@H]1C [Example 236, (3S)-3-((1H-pyrazol-1-yl)methyl)-7-((2S,5R)-4-acryloyl-2,5-dimethylpiperazin-1-yl)-9-chloro-10-(2,4-difluorophenyl)-2H-[1,4]oxazino[2,3,4-ij]quinazolin-5(3H)-one]	60.9%
C=CC(=O)N1C[C@H](C)N(c2nc(=O)n3c4c(c(-c5ccc(F)cc5F)c(Cl)cc24)OC[C@@H]3CN(C)CC(F)(F)F)C[C@H]1C [Example 237, (3S)-7-((2S,5R)-4-acryloyl-2,5-dimethylpiperazin-1-yl)-9-chloro-10-(2,4-difluorophenyl)-3-((methyl(2,2,2-trifluoroethyl)amino)methyl)-2H-[1,4]oxazino[2,3,4-ij]quinazolin-5(3H)-one]	78.5%
C=CC(=O)N1C[C@H](C)N(c2nc(=O)n3c4c(c(-c5ccc(F)cc5F)c(Cl)cc24)OC[C@@H]3Cn2ccnc2)C[C@H]1C [Example 238, (3S)-3-((1H-imidazol-1-yl)methyl)-7-((2S,5R)-4-acryloyl-2,5-dimethylpiperazin-1-yl)-9-chloro-10-(2,4-difluorophenyl)-2H-[1,4]oxazino[2,3,4-ij]quinazolin-5(3H)-one]	79.4%
C=CC(=O)N1C[C@H](C)N(c2nc(=O)n3c4c(c(-c5ccc(F)cc5F)c(Cl)cc24)O[C@@H](CCCO)C3)C[C@H]1C [Example 247, (2S)-7-((2S,5R)-4-acryloyl-2,5-dimethylpiperazin-1-yl)-9-chloro-10-(2,4-difluorophenyl)-2-(3-hydroxypropyl)-2,3-dihydro-5H-[1,4]oxazino[2,3,4-ij]quinazolin-5-one]	42.2%
C=CC(=O)N1C[C@H](C)N(c2nc(=O)n3c4c(c(-c5ccc(F)cc5F)c(Cl)cc24)O[C@H](CCCO)C3)C[C@H]1C [Example 249, (2R)-7-((2S,5R)-4-acryloyl-2,5-dimethylpiperazin-1-yl)-9-chloro-10-(2,4-difluorophenyl)-2-(3-hydroxypropyl)-2,3-dihydro-5H-[1,4]oxazino[2,3,4-ij]quinazolin-5-one]	51.2%
C=CC(=O)N1C[C@H](C)N(c2nc(=O)n3c4c(c(-c5ccc(F)cc5F)c(Cl)cc24)OC[C@@H]3CCCO)C[C@H]1C [Example 250, (3S)-7-((2S,5R)-4-acryloyl-2,5-dimethylpiperazin-1-yl)-9-chloro-10-(2,4-difluorophenyl)-3-(3-hydroxypropyl)-2,3-dihydro-5H-[1,4]oxazino[2,3,4-ij]quinazolin-5-one]	70.1%
C=CC(=O)N1C[C@H](C)N(c2nc(=O)n3c4c(c(-c5ccc(F)cc5F)c(Cl)cc24)OC[C@H]3CCCO)C[C@H]1C [Example 251, (3R)-7-((2S,5R)-4-acryloyl-2,5-dimethylpiperazin-1-yl)-9-chloro-10-(2,4-difluorophenyl)-3-(3-hydroxypropyl)-2,3-dihydro-5H-[1,4]oxazino[2,3,4-ij]quinazolin-5-one]	85.3%
C=CC(=O)N1C[C@H](C)N(c2nc(=O)n3c4c(c(-c5ccc(F)cc5F)c(Cl)cc24)OC[C@@H]3CCCN2[C@@H]3CC[C@H]2COC3)C[C@H]1C [Example 252, (3S)-3-(3-((1R,5S)-3-oxa-8-azabicyclo[3.2.1]octan-8-yl)propyl)-7-((2S,5R)-4-acryloyl-2,5-dimethylpiperazin-1-yl)-9-chloro-10-(2,4-difluorophenyl)-2H-[1,4]oxazino[2,3,4-ij]quinazolin-5(3H)-one]	60.5%
C=CC(=O)N1C[C@H](C)N(c2nc(=O)n3c4c(c(-c5ccc(F)cc5F)c(Cl)cc24)OC[C@H]3CCCN2CCS(=O)(=O)CC2)C[C@H]1C [Example 253, (3R)-7-((2S,5R)-4-acryloyl-2,5-dimethylpiperazin-1-yl)-9-chloro-10-(2,4-difluorophenyl)-3-(3-(1,1-dioxidothiomorpholino)propyl)-2,3-dihydro-5H-[1,4]oxazino[2,3,4-ij]quinazolin-5-one]	87.6%
C=CC(=O)N1C[C@H](C)N(c2nc(=O)n3c4c(c(-c5ccc(F)cc5F)c(Cl)cc24)OC[C@H]3CCCN2C3CCC2COC3)C[C@H]1C [Example 254, (3R)-3-(3-(3-oxa-8-azabicyclo[3.2.1]octan-8-yl)propyl)-7-((2S,5R)-4-acryloyl-2,5-dimethylpiperazin-1-yl)-9-chloro-10-(2,4-difluorophenyl)-2,3-dihydro-5H-[1,4]oxazino[2,3,4-ij]quinazolin-5-one]	99.5%
C=CC(=O)N1C[C@H](C)N(c2nc(=O)n3c4c(c(-c5ccc(F)cc5F)c(Cl)cc24)OC[C@@H]3CCCN2CCS(=O)(=O)CC2)C[C@H]1C [Example 255, (3S)-7-((2S,5R)-4-acryloyl-2,5-dimethylpiperazin-1-yl)-9-chloro-10-(2,4-difluorophenyl)-3-(3-(1,1-dioxidothiomorpholino)propyl)-2,3-dihydro-5H-[1,4]oxazino[2,3,4-ij]quinazolin-5-one]	86.8%
C=CC(=O)N1C[C@H](C)N(c2nc(=O)n3c4c(c(-c5ccc(F)cc5F)c(Cl)cc24)OC[C@H]3CN2CCN(C)CC2)C[C@H]1C [Example 256, (3R)-7-((2S,5R)-4-acryloyl-2,5-dimethylpiperazin-1-yl)-9-chloro-10-(2,4-difluorophenyl)-3-((4-methylpiperazin-1-yl)methyl)-2H-[1,4]oxazino[2,3,4-ij]quinazolin-5(3H)-one]	80.1%
C=CC(=O)N1C[C@H](C)N(c2nc(=O)n3c4c(c(-c5ccc(F)cc5F)c(Cl)cc24)OC[C@@H]3CN2CCN(C)CC2)C[C@H]1C [Example 257, (3S)-7-((2S,5R)-4-acryloyl-2,5-dimethylpiperazin-1-yl)-9-chloro-10-(2,4-difluorophenyl)-3-((4-methylpiperazin-1-yl)methyl)-2H-[1,4]oxazino[2,3,4-ij]quinazolin-5(3H)-one]	94.8%
C=CC(=O)N1C[C@H](C)N(c2nc(=O)n3c4c(c(-c5ccc(F)cc5F)c(Cl)cc24)O[C@@H](CCCN2CCOCC2)C3)C[C@H]1C [Example 258, (2S)-7-((2S,5R)-4-acryloyl-2,5-dimethylpiperazin-1-yl)-9-chloro-10-(2,4-difluorophenyl)-2-(3-morpholinopropyl)-2,3-dihydro-5H-[1,4]oxazino[2,3,4-ij]quinazolin-5-one]	17.7%
C=CC(=O)N1C[C@H](C)N(c2nc(=O)n3c4c(c(-c5ccc(F)cc5F)c(Cl)cc24)OC[C@@H]3CCCN2CCN(C)CC2)C[C@H]1C [Example 259, (3S)-7-((2S,5R)-4-acryloyl-2,5-dimethylpiperazin-1-yl)-9-chloro-10-(2,4-difluorophenyl)-3-(3-(4-methylpiperazin-1-yl)propyl)-2,3-dihydro-5H-[1,4]oxazino[2,3,4-ij]quinazolin-5-one]	90.2%
C=CC(=O)N1C[C@H](C)N(c2nc(=O)n3c4c(c(-c5ccc(F)cc5F)c(Cl)cc24)O[C@H](CCCN2CCN(C)CC2)C3)C[C@H]1C [Example 260, (2R)-7-((2S,5R)-4-acryloyl-2,5-dimethylpiperazin-1-yl)-9-chloro-10-(2,4-difluorophenyl)-2-(3-(4-methylpiperazin-1-yl)propyl)-2,3-dihydro-5H-[1,4]oxazino[2,3,4-ij]quinazolin-5-one]	48.4%
C=CC(=O)N1C[C@H](C)N(c2nc(=O)n3c4c(c(-c5ccc(F)cc5F)c(Cl)cc24)O[C@H](CCCN2C4CCC2COC4)C3)C[C@H]1C [Example 261, (2R)-2-(3-(3-oxa-8-azabicyclo[3.2.1]octan-8-yl)propyl)-7-((2S,5R)-4-acryloyl-2,5-dimethylpiperazin-1-yl)-9-chloro-10-(2,4-difluorophenyl)-2,3-dihydro-5H-[1,4]oxazino[2,3,4-ij]quinazolin-5-one]	21.1%
C=CC(=O)N1C[C@H](C)N(c2nc(=O)n3c4c(c(-c5ccc(F)cc5F)c(Cl)cc24)O[C@@H](CCCN2C4CCC2COC4)C3)C[C@H]1C [Example 262, (2S)-2-(3-(3-oxa-8-azabicyclo[3.2.1]octan-8-yl)propyl)-7-((2S,5R)-4-acryloyl-2,5-dimethylpiperazin-1-yl)-9-chloro-10-(2,4-difluorophenyl)-2,3-dihydro-5H-[1,4]oxazino[2,3,4-ij]quinazolin-5-one]	31.6%
C=CC(=O)N1C[C@H](C)N(c2nc(=O)n3c4c(c(-c5ccc(F)cc5F)c(Cl)cc24)O[C@@H](CCCN2CCN(C)CC2)C3)C[C@H]1C [Example 263, (2S)-7-((2S,5R)-4-acryloyl-2,5-dimethylpiperazin-1-yl)-9-chloro-10-(2,4-difluorophenyl)-2-(3-(4-methylpiperazin-1-yl)propyl)-2,3-dihydro-5H-[1,4]oxazino[2,3,4-ij]quinazolin-5-one]	41.6%
